Data taken from the CheMixHub viscosity set.

Assay: xn = mol fraction of the nth substance listed
Details: 101 kPa

Oc1ccccc1Cl + CN(C)c1ccccc1
Details | viscosity [mPa·s]
293.15 K, x1 = 0.1395 | 1.859
293.15 K, x1 = 0.2654 | 2.43
293.15 K, x1 = 0.3923 | 3.05
293.15 K, x1 = 0.5102 | 3.7
293.15 K, x1 = 0.5898 | 4.14
293.15 K, x1 = 0.6926 | 4.69
293.15 K, x1 = 0.743 | 4.89
293.15 K, x1 = 0.7994 | 5
293.15 K, x1 = 0.8299 | 4.98
293.15 K, x1 = 0.896 | 4.74
298 K, x1 = 0.1002 | 1.53
298 K, x1 = 0.199 | 1.698
298 K, x1 = 0.3025 | 2.194
298 K, x1 = 0.4016 | 2.558
298 K, x1 = 0.502 | 3.036
298 K, x1 = 0.6009 | 3.48
298 K, x1 = 0.6991 | 3.758
298 K, x1 = 0.8 | 3.852
298 K, x1 = 0.9019 | 3.691
303 K, x1 = 0.1002 | 1.384
303 K, x1 = 0.199 | 1.522
303 K, x1 = 0.3025 | 1.937
303 K, x1 = 0.4016 | 2.2
303 K, x1 = 0.502 | 2.564
303 K, x1 = 0.6009 | 2.904
303 K, x1 = 0.6991 | 3.121
303 K, x1 = 0.8 | 3.212
303 K, x1 = 0.9019 | 3.106
303.15 K, x1 = 0.1395 | 1.473
303.15 K, x1 = 0.2654 | 1.89
303.15 K, x1 = 0.3923 | 2.35
303.15 K, x1 = 0.5102 | 2.79
303.15 K, x1 = 0.5898 | 3.09
303.15 K, x1 = 0.6926 | 3.41
303.15 K, x1 = 0.743 | 3.505
303.15 K, x1 = 0.7994 | 3.545
303.15 K, x1 = 0.8299 | 3.545
303.15 K, x1 = 0.896 | 3.41
308 K, x1 = 0.1002 | 1.254
308 K, x1 = 0.199 | 1.366
308 K, x1 = 0.3025 | 1.702
308 K, x1 = 0.4016 | 1.951
308 K, x1 = 0.502 | 2.221
308 K, x1 = 0.6009 | 2.476
308 K, x1 = 0.6991 | 2.681
308 K, x1 = 0.8 | 2.757
308 K, x1 = 0.9019 | 2.662
313 K, x1 = 0.1002 | 1.171
313 K, x1 = 0.199 | 1.234
313 K, x1 = 0.3025 | 1.527
313 K, x1 = 0.4016 | 1.736
313 K, x1 = 0.502 | 1.965
313 K, x1 = 0.6009 | 2.152
313 K, x1 = 0.6991 | 2.335
313 K, x1 = 0.8 | 2.397
313 K, x1 = 0.9019 | 2.36
313.15 K, x1 = 0.1395 | 1.243
313.15 K, x1 = 0.2654 | 1.41
313.15 K, x1 = 0.3923 | 1.66
313.15 K, x1 = 0.5102 | 1.915
313.15 K, x1 = 0.5898 | 2.085
313.15 K, x1 = 0.6926 | 2.305
313.15 K, x1 = 0.743 | 2.4
313.15 K, x1 = 0.7994 | 2.47
313.15 K, x1 = 0.8299 | 2.475
313.15 K, x1 = 0.896 | 2.45
318 K, x1 = 0.1002 | 1.077
318 K, x1 = 0.199 | 1.122
318 K, x1 = 0.3025 | 1.382
318 K, x1 = 0.4016 | 1.56
318 K, x1 = 0.502 | 1.728
318 K, x1 = 0.6009 | 1.899
318 K, x1 = 0.6991 | 2.05
318 K, x1 = 0.8 | 2.173
318 K, x1 = 0.9019 | 2.028

CCCN + CNC(C)=O
308.15 K
Details | viscosity [mPa·s]
x2 = 0.0288 | 0.3203
x2 = 0.161 | 0.4788
x2 = 0.322 | 0.6904
x2 = 0.4077 | 0.8508
x2 = 0.5208 | 1.16
x2 = 0.6414 | 1.544
x2 = 0.7368 | 1.882
x2 = 0.8217 | 2.222
x2 = 0.9755 | 3.191
